# Measured values taken from PubChem BioAssay AID1963966 (Molecular Pharmacology Branch, DTP, NCI, 2024).
# System: 935938-334-R-J1-PDC spheroids with HUVEC/MSC, viability
# Assay: Anticancer human tumor 935938-334-R-J1-PDC patient-derived small intestine adenocarcinoma cell line growth inhibition [PI3K]
# Settings: for IC50: curve of first compound; for viability, T/C: stronger effect = lower value
# How it was run: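 Stroma-containing spheroids: tumor line, pooled-donor HUVEC, hMSC. Treatments: targeted agents with PI3K inhibitors. Dosing: clinically relevant, half-log spacing, 10 microM ceiling without known Cmax. Read-out: cell viability.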
# [1] = second compound 0.0316 µM, first compound 0.0316 µM
# [2] = second compound 0.0316 µM, first compound 0.1 µM
# [3] = second compound 0.1 µM, first compound 0.0316 µM
# [4] = second compound 0.1 µM, first compound 0.1 µM
# [5] = second compound 0.316 µM, first compound 0.0316 µM
# [6] = second compound 0.316 µM, first compound 0.1 µM
# [7] = second compound 1 µM, first compound 0.0316 µM
# [8] = second compound 1 µM, first compound 0.1 µM
# [9] = second compound 3.16 µM, first compound 0.0316 µM
# [10] = second compound 3.16 µM, first compound 0.1 µM
# [11] = second compound 10 µM, first compound 0.0316 µM
# [12] = second compound 10 µM, first compound 0.1 µM
# 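Also: compound exposure lasted seven days before viability was read.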
# 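For viability, T/C in this document: percent of vehicle DMSO treated spheroid viability so 100% = untreated.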
structure (smiles),measurement,setting,value
C[C@@H](NC(=O)c1ncnc(N)c1Cl)c1ncc(C(=O)Nc2cc(C(F)(F)F)c(Cl)cn2)s1 + CC(Nc1ncnc2nc[nH]c12)c1cc2cccc(Cl)c2c(=O)n1-c1ccccc1,IC50,second compound 0.0316 µM,> 10 µM
same,IC50,second compound 0.1 µM,> 10 µM
same,IC50,second compound 0.316 µM,> 10 µM
same,IC50,second compound 1 µM,> 10 µM
same,IC50,second compound 3.16 µM,> 10 µM
same,IC50,second compound 10 µM,> 10 µM
same,"viability, T/C",[1],104%
same,"viability, T/C",[2],103%
same,"viability, T/C","second compound 0.0316 µM, first compound 0.316 µM",90.1%
same,"viability, T/C","second compound 0.0316 µM, first compound 1 µM",120%
same,"viability, T/C","second compound 0.0316 µM, first compound 3.16 µM",109%
same,"viability, T/C","second compound 0.0316 µM, first compound 10 µM",75.6%
same,"viability, T/C",[3],109%
same,"viability, T/C",[4],138%
same,"viability, T/C","second compound 0.1 µM, first compound 0.316 µM",123%
same,"viability, T/C","second compound 0.1 µM, first compound 1 µM",99.8%
same,"viability, T/C","second compound 0.1 µM, first compound 3.16 µM",98.2%
same,"viability, T/C","second compound 0.1 µM, first compound 10 µM",111%
same,"viability, T/C",[5],123%
same,"viability, T/C",[6],84.5%
same,"viability, T/C","second compound 0.316 µM, first compound 0.316 µM",118%
same,"viability, T/C","second compound 0.316 µM, first compound 1 µM",127%
same,"viability, T/C","second compound 0.316 µM, first compound 3.16 µM",98.3%
same,"viability, T/C","second compound 0.316 µM, first compound 10 µM",107%
same,"viability, T/C",[7],97.8%
same,"viability, T/C",[8],86.6%
same,"viability, T/C","second compound 1 µM, first compound 0.316 µM",126%
same,"viability, T/C","second compound 1 µM, first compound 1 µM",95.1%
same,"viability, T/C","second compound 1 µM, first compound 3.16 µM",117%
same,"viability, T/C","second compound 1 µM, first compound 10 µM",69.8%
same,"viability, T/C",[9],91.8%
same,"viability, T/C",[10],116%
same,"viability, T/C","second compound 3.16 µM, first compound 0.316 µM",109%
same,"viability, T/C","second compound 3.16 µM, first compound 1 µM",104%
same,"viability, T/C","second compound 3.16 µM, first compound 3.16 µM",90%
same,"viability, T/C","second compound 3.16 µM, first compound 10 µM",70%
same,"viability, T/C",[11],81.4%
same,"viability, T/C",[12],88.5%
same,"viability, T/C","second compound 10 µM, first compound 0.316 µM",98.7%
same,"viability, T/C","second compound 10 µM, first compound 1 µM",92.9%
same,"viability, T/C","second compound 10 µM, first compound 3.16 µM",87.8%
same,"viability, T/C","second compound 10 µM, first compound 10 µM",60.8%
Cn1ncnc1[C@H]1c2n[nH]c(=O)c3cc(F)cc(c23)N[C@@H]1c1ccc(F)cc1 + CC(Nc1ncnc2nc[nH]c12)c1cc2cccc(Cl)c2c(=O)n1-c1ccccc1,IC50,second compound 0.0316 µM,> 0.1 µM
same,IC50,second compound 0.1 µM,> 0.1 µM
same,IC50,second compound 0.316 µM,> 0.1 µM
same,IC50,second compound 1 µM,> 0.1 µM
same,IC50,second compound 3.16 µM,> 0.1 µM
same,IC50,second compound 10 µM,> 0.1 µM
same,"viability, T/C","second compound 0.0316 µM, first compound 0.000316 µM",95.3%
same,"viability, T/C","second compound 0.0316 µM, first compound 0.001 µM",84.7%
same,"viability, T/C","second compound 0.0316 µM, first compound 0.00316 µM",82.9%
same,"viability, T/C","second compound 0.0316 µM, first compound 0.01 µM",108%
same,"viability, T/C",[1],102%
same,"viability, T/C",[2],84.3%
same,"viability, T/C","second compound 0.1 µM, first compound 0.000316 µM",86.7%
same,"viability, T/C","second compound 0.1 µM, first compound 0.001 µM",84.5%
same,"viability, T/C","second compound 0.1 µM, first compound 0.00316 µM",91.8%
same,"viability, T/C","second compound 0.1 µM, first compound 0.01 µM",80.2%
same,"viability, T/C",[3],85.1%
same,"viability, T/C",[4],88.1%
same,"viability, T/C","second compound 0.316 µM, first compound 0.000316 µM",109%
same,"viability, T/C","second compound 0.316 µM, first compound 0.001 µM",85.4%
same,"viability, T/C","second compound 0.316 µM, first compound 0.00316 µM",83.6%
same,"viability, T/C","second compound 0.316 µM, first compound 0.01 µM",97.4%
same,"viability, T/C",[5],81.3%
same,"viability, T/C",[6],83.2%
same,"viability, T/C","second compound 1 µM, first compound 0.000316 µM",102%
same,"viability, T/C","second compound 1 µM, first compound 0.001 µM",115%
same,"viability, T/C","second compound 1 µM, first compound 0.00316 µM",86.3%
same,"viability, T/C","second compound 1 µM, first compound 0.01 µM",48.2%
same,"viability, T/C",[7],93.1%
same,"viability, T/C",[8],87.2%
same,"viability, T/C","second compound 3.16 µM, first compound 0.000316 µM",98%
same,"viability, T/C","second compound 3.16 µM, first compound 0.001 µM",71.9%
same,"viability, T/C","second compound 3.16 µM, first compound 0.00316 µM",90.9%
same,"viability, T/C","second compound 3.16 µM, first compound 0.01 µM",70.9%
same,"viability, T/C",[9],83.2%
same,"viability, T/C",[10],84.1%
same,"viability, T/C","second compound 10 µM, first compound 0.000316 µM",62.7%
same,"viability, T/C","second compound 10 µM, first compound 0.001 µM",89%
same,"viability, T/C","second compound 10 µM, first compound 0.00316 µM",94.6%
same,"viability, T/C","second compound 10 µM, first compound 0.01 µM",81.5%
same,"viability, T/C",[11],91.6%
same,"viability, T/C",[12],67.8%
